Data: ChEMBL document CHEMBL1201862, “PubChem BioAssay data set” (2004)
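Exposure lasted 48 hours, with cells grown in 96-well plates and compounds tested at five concentrations. At the GI50, growth is halved.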 Active and inactive are the calls of the source. No stated cut-off is given here; in the data, active = GI50 up to about 1.1 µM and inactive = higher.

Tests used:
Assay in all cases: NCI-60 cell line screen, 48 h
[1] = tested on: COLO 205
[2] = tested on: HL-60
[3] = tested on: HOP-18
[4] = tested on: HOP-62
[5] = tested on: HOP-92
[6] = tested on: IGROV-1
[7] = tested on: KM12
[8] = tested on: MOLT-4
[9] = tested on: Malme-3M
[10] = tested on: NCI-H226
[11] = tested on: NCI-H23
[12] = tested on: NCI-H522
[13] = tested on: OVCAR-8
[14] = tested on: SF-268
[15] = tested on: SK-MEL-2
[16] = tested on: SK-MEL-5
[17] = tested on: SN12C
[18] = tested on: UACC-62
[19] = tested on: CAKI-1
[20] = tested on: M14

CSc1nc(NC2OC(CO)C(O)C(O)C2O)c(N)c(=O)[nH]1 (stereo unspecified)
GI50 [1]: > 100 µM (inactive)
GI50 [2]: > 100 µM (inactive)
GI50 [3]: > 100 µM (inactive)
GI50 [4]: > 100 µM (inactive)
GI50 [5]: > 100 µM (inactive)
GI50 [6]: > 100 µM (inactive)
GI50 [7]: > 100 µM (inactive)
GI50 [8]: > 100 µM (inactive)
GI50 [9]: > 100 µM (inactive)
GI50 [10]: > 100 µM (inactive)
GI50 [11]: > 100 µM (inactive)
GI50 [12]: > 100 µM (inactive)
GI50 [13]: > 100 µM (inactive)
GI50 [14]: > 100 µM (inactive)
GI50 [15]: > 100 µM (inactive)
GI50 [16]: > 100 µM (inactive)
GI50 [17]: > 100 µM (inactive)
GI50 [18]: > 100 µM (inactive)

NC(CCP(=O)(O)CCC1C=CC=CC1)C(=O)O (stereo unspecified)
GI50 [19]: > 100 µM (inactive)
GI50 [1]: > 100 µM (inactive)
GI50 [2]: > 100 µM (inactive)
GI50 [5]: > 100 µM (inactive)
GI50 [6]: > 100 µM (inactive)
GI50 [7]: > 100 µM (inactive)
GI50 [20]: > 100 µM (inactive)
GI50 [8]: > 100 µM (inactive)
GI50 [11]: > 100 µM (inactive)
GI50 [12]: 20.7 µM (inactive)
GI50 [13]: > 100 µM (inactive)
GI50 [14]: > 100 µM (inactive)
GI50 [15]: > 100 µM (inactive)
GI50 [16]: > 100 µM (inactive)
GI50 [17]: > 100 µM (inactive)
GI50 [18]: > 100 µM (inactive)

COc1ccc(C2SCc3nc4ccccc4n32)cc1 (stereo unspecified)
GI50 [19]: 2.21 µM (inactive)
GI50 [1]: 2.73 µM (inactive)
GI50 [2]: 1.91 µM (inactive)
GI50 [3]: > 100 µM (inactive)
GI50 [5]: 1.85 µM (inactive)
GI50 [6]: 4.66 µM (inactive)
GI50 [20]: 4.95 µM (inactive)
GI50 [8]: 3.37 µM (inactive)
GI50 [9]: 7.55 µM (inactive)
GI50 [10]: 8.99 µM (inactive)
GI50 [11]: 4.04 µM (inactive)
GI50 [12]: 0.986 µM (active)
GI50 [13]: 6.07 µM (inactive)
GI50 [14]: 5.43 µM (inactive)
GI50 [15]: 3.9 µM (inactive)
GI50 [16]: 3.84 µM (inactive)
GI50 [17]: 4.41 µM (inactive)
GI50 [18]: 3.58 µM (inactive)

O=C(Nc1ccccc1F)c1c(O)nc2sccn2c1=O
GI50 [19]: > 10 µM (inactive)
GI50 [1]: > 10 µM (inactive)
GI50 [2]: > 10 µM (inactive)
GI50 [4]: > 10 µM (inactive)
GI50 [6]: > 10 µM (inactive)
GI50 [7]: > 10 µM (inactive)
GI50 [20]: > 10 µM (inactive)
GI50 [8]: > 10 µM (inactive)
GI50 [9]: > 10 µM (inactive)
GI50 [10]: > 10 µM (inactive)
GI50 [11]: > 10 µM (inactive)
GI50 [12]: > 10 µM (inactive)
GI50 [13]: > 10 µM (inactive)
GI50 [14]: > 10 µM (inactive)
GI50 [15]: > 10 µM (inactive)
GI50 [16]: > 10 µM (inactive)
GI50 [17]: > 10 µM (inactive)
GI50 [18]: > 10 µM (inactive)

CCOC(=O)CSc1nc(N)c2c(-c3ccc(OC)c(OC)c3)c3c(nc2n1)CCCC3
GI50 [19]: > 100 µM (inactive)
GI50 [1]: > 100 µM (inactive)
GI50 [2]: > 100 µM (inactive)
GI50 [4]: 39 µM (inactive)
GI50 [6]: > 100 µM (inactive)
GI50 [7]: > 100 µM (inactive)
GI50 [20]: > 100 µM (inactive)
GI50 [8]: > 100 µM (inactive)
GI50 [9]: 88.1 µM (inactive)
GI50 [11]: > 100 µM (inactive)
GI50 [13]: 24.3 µM (inactive)
GI50 [14]: 43.4 µM (inactive)
GI50 [16]: > 100 µM (inactive)
GI50 [17]: > 100 µM (inactive)
GI50 [18]: > 100 µM (inactive)

COc1ccc2c(c1O)-c1cc(O)cc3c1[C@@H](C2)N(C)CC3
GI50 [19]: 12.3 µM (inactive)
GI50 [1]: 50.7 µM (inactive)
GI50 [2]: 11 µM (inactive)
GI50 [3]: 67.3 µM (inactive)
GI50 [4]: 32.9 µM (inactive)
GI50 [5]: 19 µM (inactive)
GI50 [6]: 72.8 µM (inactive)
GI50 [7]: 54.8 µM (inactive)
GI50 [8]: 66.1 µM (inactive)
GI50 [9]: 64 µM (inactive)
GI50 [10]: 47 µM (inactive)
GI50 [11]: 96.8 µM (inactive)
GI50 [12]: 121 µM (inactive)
GI50 [13]: 8.79 µM (inactive)
GI50 [14]: 75.3 µM (inactive)
GI50 [15]: 27.5 µM (inactive)
GI50 [16]: 62.2 µM (inactive)
GI50 [17]: 82 µM (inactive)
GI50 [18]: 70 µM (inactive)

C[C@]12CC[C@@H]3c4ccc(OCCN5CCCC5)cc4CC[C@H]3[C@@H]1CCC2=O
GI50 [19]: 31.1 µM (inactive)
GI50 [1]: 8.41 µM (inactive)
GI50 [2]: 45.2 µM (inactive)
GI50 [4]: 18.6 µM (inactive)
GI50 [5]: 29 µM (inactive)
GI50 [6]: 12.4 µM (inactive)
GI50 [20]: 13.7 µM (inactive)
GI50 [8]: 22.4 µM (inactive)
GI50 [10]: 19.6 µM (inactive)
GI50 [11]: 36.4 µM (inactive)
GI50 [13]: 25.6 µM (inactive)
GI50 [15]: 17.6 µM (inactive)
GI50 [16]: 13.3 µM (inactive)
GI50 [18]: 23.8 µM (inactive)

CNC(=O)SCC(N)C(=O)O (stereo unspecified)
GI50 [19]: 65.8 µM (inactive)
GI50 [1]: 61.1 µM (inactive)
GI50 [2]: 25.2 µM (inactive)
GI50 [3]: > 78.2 µM (inactive)
GI50 [4]: > 100 µM (inactive)
GI50 [5]: 51.9 µM (inactive)
GI50 [6]: > 100 µM (inactive)
GI50 [7]: > 100 µM (inactive)
GI50 [8]: 38.2 µM (inactive)
GI50 [9]: > 100 µM (inactive)
GI50 [10]: > 84.7 µM (inactive)
GI50 [11]: > 84.1 µM (inactive)
GI50 [12]: > 67.9 µM (inactive)
GI50 [13]: > 100 µM (inactive)
GI50 [14]: > 100 µM (inactive)
GI50 [15]: > 82 µM (inactive)
GI50 [16]: > 78.7 µM (inactive)
GI50 [17]: > 95.9 µM (inactive)
GI50 [18]: > 94.8 µM (inactive)

Cn1c(=O)[nH]c2nncnc2c1=O
GI50 [19]: 11 µM (inactive)
GI50 [1]: 69.2 µM (inactive)
GI50 [2]: 27.9 µM (inactive)
GI50 [3]: 13.5 µM (inactive)
GI50 [4]: 34.4 µM (inactive)
GI50 [5]: 21.3 µM (inactive)
GI50 [6]: 29.2 µM (inactive)
GI50 [7]: 23.8 µM (inactive)
GI50 [8]: 181 µM (inactive)
GI50 [9]: 44.7 µM (inactive)
GI50 [10]: 5.83 µM (inactive)
GI50 [11]: 179 µM (inactive)
GI50 [12]: 157 µM (inactive)
GI50 [13]: 19.8 µM (inactive)
GI50 [14]: 133 µM (inactive)
GI50 [15]: 120 µM (inactive)
GI50 [16]: 92.5 µM (inactive)
GI50 [17]: 148 µM (inactive)
GI50 [18]: 44.4 µM (inactive)

CCOC(=O)CCC(NC(=O)OCc1ccccc1)C(=O)NC(CCC(=O)OCC)C(=O)NNC(=O)OC(C)(C)C (stereo unspecified)
GI50 [19]: > 100 µM (inactive)
GI50 [1]: > 100 µM (inactive)
GI50 [2]: > 100 µM (inactive)
GI50 [4]: > 100 µM (inactive)
GI50 [5]: > 100 µM (inactive)
GI50 [6]: > 100 µM (inactive)
GI50 [7]: > 100 µM (inactive)
GI50 [20]: > 100 µM (inactive)
GI50 [8]: 28.2 µM (inactive)
GI50 [9]: > 100 µM (inactive)
GI50 [10]: 36.6 µM (inactive)
GI50 [11]: > 100 µM (inactive)
GI50 [12]: > 100 µM (inactive)
GI50 [13]: > 100 µM (inactive)
GI50 [15]: > 100 µM (inactive)
GI50 [16]: > 100 µM (inactive)
GI50 [17]: > 100 µM (inactive)
GI50 [18]: > 100 µM (inactive)

O=C(c1ccccc1)c1ccc2n[se]nc2c1
GI50 [19]: 27.7 µM (inactive)
GI50 [1]: 21.1 µM (inactive)
GI50 [2]: 3.56 µM (inactive)
GI50 [3]: < 0.01 µM (active)
GI50 [6]: 50.6 µM (inactive)
GI50 [7]: 4.54 µM (inactive)
GI50 [20]: 19.1 µM (inactive)
GI50 [8]: 23.9 µM (inactive)
GI50 [9]: > 100 µM (inactive)
GI50 [11]: 62.5 µM (inactive)
GI50 [12]: 25.2 µM (inactive)
GI50 [13]: 73.5 µM (inactive)
GI50 [14]: > 100 µM (inactive)
GI50 [15]: > 100 µM (inactive)
GI50 [16]: 11.8 µM (inactive)
GI50 [17]: 54.7 µM (inactive)
GI50 [18]: 8.51 µM (inactive)
